# Experimental data: US12371454B2, “Cyclic peptide compound having Kras inhibitory action” (priority 2019, dated 2025)
# Starred links: 1 amine or outer side, 2 acyl side, 3 side chain; linkers in the order of their positions; H or OH if unused. Positions of bridges follow the written chain, without caps; N, C: chain ends. Non-standard residues stand in square brackets, D forms with d. Residues, ends and D or L forms follow the SMILES beside them. *: point of attachment. hPhe(3,5-F2-4-CF3) = N[C@@H](CCc1cc(F)c(C(F)(F)F)c(F)c1)C(=O)O; hPhe(3-Cl-4-CF3) = N[C@@H](CCc1ccc(C(F)(F)F)c(Cl)c1)C(=O)O; NMePhe(4-CF3) = CN[C@@H](Cc1ccc(C(F)(F)F)cc1)C(=O)O; 3Oxa8azabicyclo(3.2.1)octane = C1CC2COCC1N2*; NEtPhe(4-Me) = CCN[C@@H](Cc1ccc(C)cc1)C(=O)O; NMePhe(4-Me) = CN[C@@H](Cc1ccc(C)cc1)C(=O)O; NMePhe(2-Cl) = CN[C@@H](Cc1ccccc1Cl)C(=O)O; NMedβ3hAla = C[C@H](CC(=O)[*:2])N(C)[*:1]; NMeAla(cPent) = CN[C@@H](CC1CCCC1)C(=O)O; Oic = O=C(O)[C@@H]1C[C@@H]2CCCC[C@@H]2N1; NMeGly(cPent) = CN[C@H](C(=O)O)C1CCCC1; Pro(4,4-F2) = O=C(O)[C@@H]1CC(F)(F)CN1; NMe3Pal = CN[C@@H](Cc1cccnc1)C(=O)O; NMeCha = CN[C@@H](CC1CCCCC1)C(=O)O; Hyp = O=C(O)[C@@H]1C[C@@H](O)CN1; NMeChg = CN[C@H](C(=O)O)C1CCCCC1; NMeI = CC[C@H](C)[C@H](NC)C(=O)O; NMeT = CN[C@H](C(=O)O)[C@@H](C)O; NMeD = CN[C@@H](CC(=O)O)C(=O)O; NMeL = CN[C@@H](CC(C)C)C(=O)O; NMeNva = CCC[C@H](NC)C(=O)O; NMeV = CN[C@H](C(=O)O)C(C)C; d(β3hA) = C[C@@H](N)CC(=O)O; NMeS = CN[C@@H](CO)C(=O)O; NMeA = CN[C@@H](C)C(=O)O; NMeAib = CNC(C)(C)C(=O)O; Piperidide = C1CCN(*)CC1; Pyrrolidide = C1CCN(*)C1; dNMeA = CN[C@H](C)C(=O)O; Ac5c = NC1(C(=O)O)CCCC1; Aze = O=C(O)[C@@H]1CCN1; Ac4c = NC1(C(=O)O)CCC1; Sar = CNCC(=O)O; Propyl = CCC*
# Molecular target: T1, Kras and SOS1 (biotin-tagged human Kras loaded with GDP, His-tagged human SOS1) (Homo sapiens, UniProt P01116, G12D)
# T1 construct: made in house; host or cells: E. coli (stated for Kras only)
# T1 sequence (P01116 1-188 isoform P01116-2 G12D): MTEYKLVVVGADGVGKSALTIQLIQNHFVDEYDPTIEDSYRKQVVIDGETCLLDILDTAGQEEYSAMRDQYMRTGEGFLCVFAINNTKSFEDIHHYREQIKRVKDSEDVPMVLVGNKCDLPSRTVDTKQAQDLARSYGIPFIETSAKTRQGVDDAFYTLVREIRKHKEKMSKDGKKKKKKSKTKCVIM
# Assay: Protein-protein interaction inhibition between Kras and SOS1 (KrasGl2D-SOS PPI) using AlphaScreen
# Format: binding
# Conditions: not given
# Outline: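 Energy transfer from nickel-chelate donor beads bound to His-SOS1 to streptavidin acceptor beads bound to biotin-Kras, expressed in E. coli and loaded with GDP after purification, was monitored. Donors were excited at 680 nm; singlet oxygen reaching acceptors gave emission read at 520-620 nm.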
row,Compound,IC50 [nM]
1,CC[C@H](C)[C@@H]1NC(=O)[C@H](CC(C)C)N(C)C(=O)C[C@@H](C(=O)N2CCCCC2)N(C)C(=O)[C@H](C2CCCCC2)N(C)C(=O)C2(CCCC2)NC(=O)[C@@H]2C[C@@H]3CCCC[C@@H]3N2C(=O)[C@H](CCc2ccc(C(F)(F)F)c(Cl)c2)NC(=O)CN(C)C(=O)[C@H](CC2CCCCC2)N(C)C(=O)CN(C)C(=O)CN(C)C1=O [Compound 297] ([NMeL]I[Sar][Sar][NMeCha][Sar][hPhe(3-Cl-4-CF3)][Oic][Ac5c][NMeChg][NMeD]-Piperidide; lactam N-11),49

# Same assay, conditions: AlphaScreen; biotin-tagged human Kras loaded with GDP, His-tagged human SOS1; read-out: KRAS G12D-SOS PPI IC50
row,Compound,IC50 [nM]
1,CC[C@H](C)[C@@H]1NC(=O)[C@H](C)N(C)C(=O)C[C@@H](C(=O)N2CCCC2)N(C)C(=O)[C@H](C(C)C)N(C)C(=O)C2(CCC2)NC(=O)[C@H](Cc2ccccc2Cl)N(C)C(=O)[C@H](CCc2ccc(C(F)(F)F)c(Cl)c2)NC(=O)CN(C)C(=O)[C@H](CC2CCCCC2)N(C)C(=O)CN(C)C(=O)CN(C)C1=O [Compound 906] ([NMeA]I[Sar][Sar][NMeCha][Sar][hPhe(3-Cl-4-CF3)][NMePhe(2-Cl)][Ac4c][NMeV][NMeD]-Pyrrolidide; lactam N-11),2.7
2,"CCC[C@H]1C(=O)N[C@@H]([C@@H](C)CC)C(=O)N(C)CC(=O)N(C)CC(=O)N(C)[C@@H](Cc2ccc(C)cc2)C(=O)N(C)CC(=O)N[C@@H](CCc2cc(F)c(C(F)(F)F)c(F)c2)C(=O)N2CC(F)(F)C[C@H]2C(=O)NC2(CCCC2)C(=O)N(C)[C@@H](C2CCCCC2)C(=O)N(C)[C@H](C(=O)N2CCCC2)CC(=O)N1C [Compound 1306] ([NMeNva]I[Sar][Sar][NMePhe(4-Me)][Sar][hPhe(3,5-F2-4-CF3)][Pro(4,4-F2)][Ac5c][NMeChg][NMeD]-Pyrrolidide; lactam N-11)",0.5
3,CCO[C@@H]1C[C@H]2C(=O)NC3(CCCC3)C(=O)N(C)[C@@H](C3CCCC3)C(=O)N(C)[C@H](C)CC(=O)N(C)[C@@H](CC(C)C)C(=O)N[C@@H]([C@@H](C)CC)C(=O)N[C@@H](C)C(=O)N3CC[C@H]3C(=O)N(CC)[C@@H](Cc3ccc(C)cc3)C(=O)N(C)CC(=O)N[C@@H](CCc3ccc(C(F)(F)F)c(Cl)c3)C(=O)N2C1 [Compound 525] (cyclo(A[Aze][NEtPhe(4-Me)][Sar][hPhe(3-Cl-4-CF3)][Hyp](Et)[Ac5c][NMeGly(cPent)][NMedβ3hAla][NMeL]I)),2.3
4,CC[C@H](C)[C@@H]1NC(=O)[C@H](CC(C)C)N(C)C(=O)C[C@@H](C(=O)N2CCCCC2)N(C)C(=O)[C@H]([C@@H](C)OC)N(C)C(=O)C2(CCCC2)NC(=O)[C@@H]2CCCN2C(=O)[C@H](CCc2ccc(C(F)(F)F)c(Cl)c2)NC(=O)CN(C)C(=O)[C@H](CC2CCCCC2)N(C)C(=O)CN(C)C(=O)CN(C)C1=O [Compound 1101] ([NMeL]I[Sar][Sar][NMeCha][Sar][hPhe(3-Cl-4-CF3)]P[Ac5c][NMeT](Me)[NMeD]-Piperidide; lactam N-11),9
5,CCCOC[C@H]1C(=O)N(C)[C@H](C(=O)N2CCCCC2)CC(=O)N(C)[C@@H](CC(C)C)C(=O)N[C@@H]([C@@H](C)CC)C(=O)N(C)CC(=O)N(C)CC(=O)N(C)[C@@H](CC2CCCCC2)C(=O)N(C)CC(=O)N[C@@H](CCc2ccc(C(F)(F)F)c(Cl)c2)C(=O)N2CCC[C@H]2C(=O)NC2(CCCC2)C(=O)N1C [Compound 1771] ([NMeL]I[Sar][Sar][NMeCha][Sar][hPhe(3-Cl-4-CF3)]P[Ac5c][NMeS](Propyl)[NMeD]-Piperidide; lactam N-11),78
6,CC[C@H](C)[C@@H]1NC(=O)[C@H](CC(C)C)N(C)C(=O)C[C@@H](C(=O)N2C3CCC2COC3)N(C)C(=O)[C@H]([C@@H](C)CC)N(C)C(=O)C2(CCCC2)NC(=O)[C@@H]2CCCN2C(=O)[C@H](CCc2ccc(C(F)(F)F)c(Cl)c2)NC(=O)CN(C)C(=O)[C@H](Cc2ccc(C(F)(F)F)cc2)N(C)C(=O)[C@@H]2CCN2C(=O)[C@H](C)N(C)C1=O [Compound 545] ([NMeL]I[NMeA][Aze][NMePhe(4-CF3)][Sar][hPhe(3-Cl-4-CF3)]P[Ac5c][NMeI][NMeD]-{3Oxa8azabicyclo(3.2.1)octane}; lactam N-11),1.1
7,CC[C@H](C)[C@@H]1NC(=O)[C@H](C)N(C)C(=O)C[C@@H](C)N(C)C(=O)[C@H](CC2CCCC2)N(C)C(=O)C(C)(C)N(C)C(=O)[C@@H]2CCCN2C(=O)[C@H](CCc2ccc(C(F)(F)F)c(Cl)c2)NC(=O)CN(C)C(=O)[C@H](CC2CCCCC2)N(C)C(=O)[C@@H]2CCN2C(=O)[C@H](C)N(C)C1=O [Compound 2158] (cyclo([Aze][NMeCha][Sar][hPhe(3-Cl-4-CF3)]P[NMeAib][NMeAla(cPent)][NMedβ3hAla][NMeA]I[NMeA])),89
8,CC[C@H](C)[C@@H]1NC(=O)[C@H](C)N(C)C(=O)C[C@@H](C)NC(=O)[C@H](C2CCCC2)N(C)C(=O)C2(CCCC2)NC(=O)[C@@H]2CCCN2C(=O)[C@H](CCc2ccc(C(F)(F)F)c(Cl)c2)NC(=O)[C@@H](C)N(C)C(=O)[C@H](Cc2cccnc2)N(C)C(=O)CN(C)C(=O)CN(C)C1=O [Compound 919] (cyclo([Ac5c][NMeGly(cPent)][d(β3hA)][NMeA]I[Sar][Sar][NMe3Pal][dNMeA][hPhe(3-Cl-4-CF3)]P)),52
